How the values were obtained:
Type in all cases: cell-based, human
T-cells = test: Toxicity of PPARα modifiers in cell culture; conditions: incubation with PPARα antagonist (Supplemental FIG. 4)
Method: Human cells were cultured in X-VIVO-15 (Lonza, Belgium). Flow cytometric analysis was performed using the following antibodies: anti-human CD3 (SK7), anti-human CD3 (UCHT1), anti-human CD4 (RPA-T4), anti-human CD8 (SK1), anti-human CD14 (M5E2), anti-human CD19 (HIB19), anti-human CD25 (M-A251), all from BD Pharmingen, anti-human CD8 (BW 135/80, Miltenyi Biotec), Fluorokine® biotinylated human Interleukin-6 (R&D systems). Cell viability during flow cytometric analysis was determined using 7-AAD and eFluor506 (eBioscience). For blockade experiments, cultures were supplemented with neutralizing antibody against anti-IL-6R (Tocilizumab), PKB/c-Akt VIII inhibitor (Calbiochem), PPARA antagonists (GW6471, Tocris, 0.05 μM) or PPARA agonists (GW7646, Tocris, 0.01 μM) together with IL-6 (100 ng/ml or 1000 IU/ml; CellGenix).

[1] = system: T-cells cocultured with Treg; test: Suppressor assay: T-cell proliferation with or without Treg (3H-Tdr incorporation); conditions: for Treg-mediated suppression in cocultures in presence of exogenous IL-6: HC T-cells with Treg plus IL-6 plus test substance, anti-IL-6R mAb 30 ng/ml, Akt VIII inhibitor 0.1 μM, PPARA agonist 0.01 μM
Method: Treg-depleted PBMC (10^5 cells) were stimulated with 0.5 μg/ml anti-CD3 mAb (OKT-3) and cultured in presence or absence of different Treg ratios (Treg:T-cells 1:1 to 1:64) (Jonuleit et al., 2001; Kubach et al., 2007). T-cell proliferation was determined on day three of cultures by addition of 37 kBq/well ^3H-Tdr for additional 16 h. Some experiments were performed by supplementing cultures with neutralizing mAb against anti-IL-6R (30 ng/ml; Tocilizumab; Roacterma; Roche) or supplemented with IL-6 (100 ng/ml or 1000 IU/ml; CellGenix). PKB/c-Akt VIII inhibitor (0.1 μM; Calbiochem, Isozyme-selective, Akt1/2) was added into individual assays. Some experiments were performed by supplementing cultures with PPARA antagonists (GW6471, Tocris, 0.05 μM) or PPARA agonists (GW7646, Tocris, 0.01 μM) together with IL-6 (100 ng/ml or 1000 IU/ml; CellGenix). For flow cytometric analysis of proliferating T-cells Treg-depleted PBMC were washed in warm PBS and stained with 1 μM CFSE and afterwards cocultured with or without Treg (ratio 1:1) and stimulated with 0.5 μg/ml anti-CD3 mAb. Proliferation was assessed on day 3 after excluding dead cells. Analysis was performed on LSRII (BD Bioscience) and evaluated using DIVA software (BD Bioscience).

PKB/c-Akt = PKB/c-Akt phosphorylation in CD3+ T-cells by flow cytometry; conditions: HC T-cells; for phosphorylation of PKB/c-Akt in presence of IL-6: 24 h with IL-6 plus IL-6R mAb or VIII inhibitor (0.01, 0.1 and 1 μM)
Method: For surface staining of PBMC or T-cells indicated antibodies were incubated for 30 min at 4° C. and washed twice with PBS. Stained cells were measured on LSRII with FACS Diva Software (BD Bioscience). To detect phosphorylated PKB/c-Akt (anti-Akt, pS473, BD Phosflow), cells were fixed at 37° C. (BD Cytofix™ Buffer); permeabilized (BD™ Phosflow Perm Buffer) washed twice with BD Pharmingen™ stain buffer and stained for the indicated antibody according to manufacturer's instructions.
A) Upper panel: CD3^+ T-cells and Treg were coculture in presence (grey) or absence (black) of IL-6 and stimulated with anti-CD3 mAb. […] One of four independent experiments is shown. Lower panel: PBMC from HC were cultured for 24 h with (grey) or without (black) IL-6, washed extensively and CD4^+ or CD8^+ T-cells were isolated. Cells were left unstimulated or were activated with plate-bound anti-CD3 and anti-CD28 mAb for four hours. Shown are expression levels of (PPARGC1A) PGC-1α mRNA in activated CD4^+ and CD8^+ T-cells (TC) normalized to resting T-cells. β-Actin used as housekeeping gene. Bars represent mean of four experiments, p-values relative to TC without IL-6. B) PKB/c-Akt phosphorylation was analyzed by flow cytometry within CD3^+ T-cells after 24 h of culture with (black) or without IL-6 (grey). C) Flow cytometric determination of PKB/c-Akt phosphorylation. […] Shown is the mean fluorescence intensity (MFI) of pPKB/c-Akt in T-cells, one representative result of five independent experiments. […] PKB/c-Akt phosphorylation was analyzed by flow cytometry within CD3^+ T-cells. […]
A) PBMC from HC were cultured for 24 h with media (black), PPARα antagonist (blue) or PPARα agonist (green), washed extensively and expression level of PGC-1α mRNA in activated T-cells was detected by qRT-PCR. β-Actin used as housekeeping gene. […] B) PKB/c-Akt phosphorylation was analysed by flow cytometry within CD3^+ T-cells after 24 h of culture with media (black), PPARα agonist (green) or PPARα antagonist (blue). […]

PGC-1α = PGC-1α (PPARGC1A) mRNA expression in activated T-cells by qRT-PCR; conditions: HC PBMC 24 h with IL-6, then anti-CD3/anti-CD28 for four hours; normalized to resting T-cells
Method: RNA was extracted from 2×10^6 cells using Rneasy Kit (Qiagen) according to manufacturer's instructions. cDNA was generated by reverse transcription with Sensiscript RT Kit (Qiagen) and amplified by quantitative RT-PCR (qRT-PCR, 7300 Real Time PCR System (Applied Biosystem) and the QuantiFAST PCR Kit (Qiagen). Relative IL-6 mRNA (QuantiTect Primer, Qiagen) expression levels were normalized to EF1-α or β-Actin. Relative PPARGC1α, IRF8, FGF19, HNF4A, Hdac, RORA mRNA was analyzed with QuantiTect Primer Assay (Qiagen) according to manufacturer's instructions and expression levels were normalized to β-ACT.
A) Upper panel: CD3^+ T-cells and Treg were coculture in presence (grey) or absence (black) of IL-6 and stimulated with anti-CD3 mAb. […] One of four independent experiments is shown. […] B) PKB/c-Akt phosphorylation was analyzed by flow cytometry within CD3^+ T-cells after 24 h of culture with (black) or without IL-6 (grey). […] Shown is the mean fluorescence intensity (MFI) of pPKB/c-Akt in T-cells, one representative result of five independent experiments. […] PKB/c-Akt phosphorylation was analyzed by flow cytometry within CD3^+ T-cells. […]
A) PBMC from HC were cultured for 24 h with media (black), PPARα antagonist (blue) or PPARα agonist (green), washed extensively and expression level of PGC-1α mRNA in activated T-cells was detected by qRT-PCR. β-Actin used as housekeeping gene. […]

## CCC(=O)NC[C@H](Cc1ccc(OCCc2nc(-c3ccccc3)oc2C)cc1)N/C(C)=C\C(=O)c1ccc(C(F)(F)F)cc1 [PPARα antagonist]
T-cells
  toxicity: without inducing toxicity
[1]; T-cells and Treg, anti-CD3 mAb, PPARA antagonist 0.05 μM alone
  Treg resistance in cocultures without IL-6: Treg resistance could be induced
[1]; no Treg, agonist 0.01 μM, antagonist 0.05 μM
  T-cell proliferation in absence of Treg: did not influence the T-cell proliferation significantly

## O=c1[nH]c2ccccc2n1C1CCN(Cc2ccc(-c3nc4cc5[nH]cnc5cc4nc3-c3ccccc3)cc2)CC1 [c-Akt inhibitor VIII]
PKB/c-Akt
  phosphorylation of PKB/c-Akt in presence of IL-6: inhibited phosphorylation of PKB/c-Akt
[1]
  Treg-mediated suppression in cocultures in presence of exogenous IL-6: restored IL-6-induced Treg resistance

## IL-6: exogenous cytokine IL-6 (100 ng/ml or 1000 IU/ml; CellGenix)
PKB/c-Akt; 24 h culture with IL-6
  phosphorylation of PKB/c-Akt in T-cells: enhanced phosphorylation of PKB/c-Akt
[1]; Treg-sensitive T-cells from HC with Treg, anti-CD3 mAb, IL-6 supplemented (100 ng/ml or 1000 IU/ml), day three
  control of T-cells by Treg in suppressor cocultures: prevented efficient control of T-cells by Treg
PGC-1α
  PGC-1α expression in activated CD4+ T-cells: down regulated PGC-1α expression
  PGC-1α expression in activated CD8+ T-cells: prevented the upregulation of PGC-1α

## anti-IL-6R mAb: neutralizing mAb against anti-IL-6R (Tocilizumab; Roacterma; Roche)
PKB/c-Akt
  phosphorylation of PKB/c-Akt in presence of IL-6: inhibited phosphorylation of PKB/c-Akt
[1]
  Treg-mediated suppression in cocultures in presence of exogenous IL-6: restored IL-6-induced Treg resistance

— patent publication US11447825B2, “In-vitro methods for the detection of autoimmune diseases or conditions” (Universitätsmedizin der Johannes Gutenberg-Universität Mainz, priority 2015, dated 2022)
